The values below come from patent US20120022143A1, “RNA Interference Mediated Inhibition of the Thymic Stromal Lymphopoietin (TSLP) Gene Expression Using Short Interfering Nucliec Acid (siNA)” (Merck Sharp & Dohme Corp, priority 2009, published 2012).

[invAb] = inverted abasic unit; d = 2'-deoxy (DNA); m = 2'-O-methyl; r = 2'-OH (RNA); f = 2'-fluoro

One data set has as its system TSLP mRNA. The experiment in a line: Initial screening: TSLP mRNA knock-down by RT-PCR (Taqman) after RNAiMax transfection of NHLF cells. Format: cell-based. As to conditions: 10 nM siNA, human NHLF cells, 24 hrs post-transfection, relative to non-targeting control, normalized to GAPDH; mean ± s.d. from 2 experiments. The procedure: (§1) All cells were obtained from ATCC (Manassas, Va.) unless otherwise indicated. Cells were grown and transfected under standard conditions, which are detailed below for each cell line.
NHLF (human; Lonza cat# CC-2512): Cells were cultured at 37° C. in the presence of 5% CO2 and grown Fibroblast Basal Medium (Lonza cat# CC-3β2) supplemented growth factors (provided with the kit) and 100 μg/mL of streptomycin and 100 U/mL penicillin.
(§2) All transfections were performed using RNAiMax (Invitrogen Cat# 13778-150) as per the manufacturer's instructions.
(§3) Both human and murine cell lines were transfected in the similar fashion. Cells were plated in all wells of a tissue-culture treated, 96-well plate at a final count of 5,000 cells/well in […], of appropriate culture media. Cells were cultured for 24 hours after plating at 37° C. in the presence of 5% CO2.
(§4) After 24 hours, complexes containing siNA and RNAiMax were created as follows: A solution of RNAiMax diluted 33-fold in OPTI-MEM was prepared. In parallel, solutions of the siNAs for testing were prepared to a final concentration of 120 nM in OPTI-MEM. After incubation of RNAiMax/OPTI-MEM solution at room temperature for 5 min, an equal volume of the siNA solution and the RNAiMax solution were added together for each of the siNAs.
(§5) This solution was incubated at room temperature for 20 minutes. After incubation, 20 uL of the solution was added to each of the relevant wells.
(§6) The final concentration of siNA in each well was 10 nM and the final volume of RNAiMax in each well was 0.3 ul.
(§7) The time of incubation with the RNAiMax-siNA complexes was 24 hours, unless otherwise indicated. There was no change in media between the transfection and harvesting of the cells unless otherwise indicated.
(§8) RNA was extracted from a 96-well plate using the TaqMan® Gene Expression Cells-to-CT™ Kit (Cat# 4399002) with a modified protocol. Briefly, a 60 uL (1 plate) or 110 uL (2 plates) of the Lysis Solution with DNase I was dispensed into each well of the Lysis Buffer Plate (twin.tec full skirt plate). The lysis buffer and stop plates were stored at 4° C. until the cells were washed.
(§9) The plate was spun at 1100 rpm for 5 minutes. The culture medium was aspirated and discarded from the wells of the culture plate. The lysis was performed automatically using a BioMek FX instrument and method. After the Biomek method was completed, the lysis plate was incubated for 2 min. at room temperature. The lysis plate can be stored for 2 hours at 4° C., or at −20° C. or −80° C. for two months.
(§10) Each well of the reverse transcription plate required 10 uL of 2× reverse transcriptase Buffer, luL of 20× reverse transcription enzyme and 2 uL of nuclease-free water. The reverse transcription master mix was prepared by mixing 2× reverse transcription buffer, 20× reverse transcription enzyme mix, and nuclease-free water. 13 uL of the reverse transcription master mix was dispensed into each well of the reverse transcription plate (semi-skirted). A separate reverse transcription plate was prepared for each cell plate. The plate was loaded onto a Biomek NX or Biomek FX Dual-96 and the Biomek method was run. The program is programmed to automatically added 7 uL of lysate from the cell lysis procedure described above into each well of the reverse transcription plate. The plate is sealed and spun on a centrifuge (1000 rpm for 30 seconds) to settle the contents to the bottom of the reverse transcription plate. The plate is placed in a thermocycler at 37° C. for 60 min, 95° C. for 5 min, and 4° C. until the plate is removed from the thermocycler. Upon removal, if not used immediately, the plate was frozen at −20° C.
A series of probes and primers were used to detect the various mRNA transcripts of the genes of TSLP, IL-8 and GAPDH in human cell lines. All the Taqman probes and primers for the experiments here-in described were supplied as pre-validated sets by Applied Biosystems, Inc. (see Table 2). […]
Background: Quantitative PCR measures a nucleic acid by following its amplification.

For the next data set, the system named is mTSLP mRNA. Put plainly: Initial screening: mouse TSLP mRNA knock-down by RT-PCR (Taqman) after RNAiMax transfection of NIH 3T3 cells. The data set is classed as cell-based. As to conditions: 10 nM siNA, 24 hrs post-transfection, mean ± s.d., summary from 2 screens. The procedure:
as §1
NIH 3T3 (murine; ATCC cat#CRL-1658): Cells were cultured at 37° C. in the presence of 5% CO2 and grown in Dulbecco's modified Eagle's medium (DMEM) with 4 mM L-glutamine adjusted to contain 1.5 g/L sodium bicarbonate and 4.5 g/L glucose and supplemented with fetal bovine serum at a final concentration of 10% and 100 μg/mL of streptomycin and 100 U/mL penicillin.
as §2, §3, §4, §5, §6, §7, §8, §9, §10
A series of probes and primers were used to detect the various mRNA transcripts of the genes of TSLP, IL-8 and GAPDH in human cell lines. […]

Turning to “25435-DC: siNA duplex: sense B cccAAGcucuuAAAuGcuA TTB (SEQ ID NO: 53), antisense UAGcAuuuAAGAGcuuGGGUU (SEQ ID NO: 54) (sense CCCAAGCUCUUAAAUGCUATT; antisense UAGCAUUUAAGAGCUUGGGUU; sense: DNA at AGT, 2'-fluoro at CU, [invAb] at 5' end, 3' end, backbone not given here; antisense: sugars from the 5' end rrrfmfffmmmmmfffmmmmm, backbone not given here)”, the “% KD TSLP” value in the data set with TSLP mRNA was −8 ± 25.4%. In addition, the “% KD mTSLP NIH3T3” value with mTSLP mRNA was −60.6 ± 5.4%.

“25441-DC: siNA duplex: sense B GGucAGuuAuGucAAuGuu TTB (SEQ ID NO: 65), antisense AACAuuGAcAuAAcuGAccUU (SEQ ID NO: 66) (sense GGUCAGUUAUGUCAAUGUUTT; antisense AACAUUGACAUAACUGACCUU; sense: DNA at AGT, 2'-fluoro at CU, [invAb] at 5' end, 3' end, backbone not given here; antisense: sugars from the 5' end rrrmffmmfmfmmffmmffmm, backbone not given here)”: in the data set on TSLP mRNA, the “% KD TSLP” value amounted to 40 ± 16.2%. For the same substance, the “% KD mTSLP NIH3T3” value in the data set with mTSLP mRNA is given as −13.4 ± 10^ %.

As to “25461-DC: siNA duplex: sense B GGGcuAAcuuAcAAcuuuu TTB (SEQ ID NO: 105), antisense AAAAGuuGuAAGuuAGcccUU (SEQ ID NO: 106) (sense GGGCUAACUUACAACUUUUTT; antisense AAAAGUUGUAAGUUAGCCCUU; sense: DNA at AGT, 2'-fluoro at CU, [invAb] at 5' end, 3' end, backbone not given here; antisense: sugars from the 5' end rrrmmffmfmmmffmmfffmm, backbone not given here)”, the “% KD TSLP” value with TSLP mRNA is listed as −48 ± 56.1%. Further, in the data set on mTSLP mRNA, the “% KD mTSLP NIH3T3” value was −17.2 ± 3.6%.

For “25440-DC: siNA duplex: sense B cucuGGuuuuuuAAAuGuA TTB (SEQ ID NO: 63), antisense UACAuuuAAAAAAccAGAGUU (SEQ ID NO: 64) (sense CUCUGGUUUUUUAAAUGUATT; antisense UACAUUUAAAAAACCAGAGUU; sense: DNA at AGT, 2'-fluoro at CU, [invAb] at 5' end, 3' end, backbone not given here; antisense: sugars from the 5' end rrrmfffmmmmmmffmmmmmm, backbone not given here)”, in the data set with TSLP mRNA, the “% KD TSLP” value worked out at 16 ± 20.1%. Moreover, the “% KD mTSLP NIH3T3” value in the data set with mTSLP mRNA came out at 1 ± 33.1%.

For the substance “25469-DC: siNA duplex: sense B AAAuGGGAAAuGAGcAAuA TTB (SEQ ID NO: 121), antisense UAUuGcucAuuucccAuuuUU (SEQ ID NO: 122) (sense AAAUGGGAAAUGAGCAAUATT; antisense UAUUGCUCAUUUCCCAUUUUU; sense: DNA at AGT, 2'-fluoro at CU, [invAb] at 5' end, 3' end, backbone not given here; antisense: sugars from the 5' end rrrfmfffmffffffmfffmm, backbone not given here)”, in the data set on TSLP mRNA, the “% KD TSLP” value is reported as −1 ± 18.8%. In addition, in the data set on mTSLP mRNA, the “% KD mTSLP NIH3T3” value was −17.2 ± 17.9%.

In the case of “25460-DC: siNA duplex: sense B GucuGAAucAAAccucACA TTB (SEQ ID NO: 103), antisense UGUGAGGuuuGAuucAGAcUU (SEQ ID NO: 104) (sense GUCUGAAUCAAACCUCACATT; antisense UGUGAGGUUUGAUUCAGACUU; sense: sugars from the 5' end dfffdddffdddffffddddd, [invAb] at 5' end, 3' end, backbone not given here; antisense: sugars from the 5' end rrrmmmmfffmmfffmmmfmm, backbone not given here)”, the “% KD TSLP” value with TSLP mRNA is recorded as −7 ± 10.7%. The “% KD mTSLP NIH3T3” value in the data set on mTSLP mRNA was found to be 40.8 ± 1.4%.

Regarding “25467-DC: siNA duplex: sense B cAAGAGccuuGcAcAucuA TTB (SEQ ID NO: 117), antisense UAGAuGuGcAAGGcucuuGUU (SEQ ID NO: 118) (sense CAAGAGCCUUGCACAUCUATT; antisense UAGAUGUGCAAGGCUCUUGUU; sense: DNA at AGT, 2'-fluoro at CU, [invAb] at 5' end, 3' end, backbone not given here; antisense: sugars from the 5' end rrrmfmfmfmmmmfffffmmm, backbone not given here)”, the “% KD TSLP” value with TSLP mRNA is −13 ± 31.7%. Besides, the “% KD mTSLP NIH3T3” value in the data set on mTSLP mRNA is recorded as −31 ± 7.4%.

As to “25465-DC: siNA duplex: sense B cuGcuAuGAAAAucucuAu TTB (SEQ ID NO: 113), antisense AUAGAGAuuuucAuaGcAGUU (SEQ ID NO: 114) (sense CUGCUAUGAAAAUCUCUAUTT; antisense AUAGAGAUUUUCAUAGCAGUU; sense: DNA at AGT, 2'-fluoro at CU, [invAb] at 5' end, 3' end, backbone not given here; antisense: RNA at 1, 2, 3, 2'-O-methyl at 4, 5, 6, 7, 13, 16, 18, 19, 20, 21, 2'-fluoro at 8, 9, 10, 11, 12, 14, 17, other sugars and backbone not given here)”, the “% KD TSLP” value in the data set on TSLP mRNA is reported as 23 ± 4.8%. The “% KD mTSLP NIH3T3” value in the data set on mTSLP mRNA is reported as 48.6 ± 2.2%.

On to “25454-DC: siNA duplex: sense B AAuuuAuuuuGuGAAcAcu TTB (SEQ ID NO: 91), antisense AGUGuucAcAAAAuAAAuuUU (SEQ ID NO: 92) (sense AAUUUAUUUUGUGAACACUTT; antisense AGUGUUCACAAAAUAAAUUUU; sense: DNA at AGT, 2'-fluoro at CU, [invAb] at 5' end, 3' end, backbone not given here; antisense: sugars from the 5' end rrrmfffmfmmmmfmmmffmm, backbone not given here)”, for which the “% KD TSLP” value with TSLP mRNA was 63 ± 16.9%. In addition, the “% KD mTSLP NIH3T3” value in the data set with mTSLP mRNA came to 30.7 ± 22.5%.

For “25439-DC: siNA duplex: sense B cAcGuGGGAAuGcAcuGAu TTB (SEQ ID NO: 61), antisense AUCAGuGcAuucccAcGuGUU (SEQ ID NO: 62) (sense CACGUGGGAAUGCACUGAUTT; antisense AUCAGUGCAUUCCCACGUGUU; sense: DNA at AGT, 2'-fluoro at CU, [invAb] at 5' end, 3' end, backbone not given here; antisense: sugars from the 5' end rrrmmfrfmfffffmfmfrmm, backbone not given here)”, the “% KD TSLP” value with TSLP mRNA was 12 ± 36.7%. Moreover, the “% KD mTSLP NIH3T3” value with mTSLP mRNA came out at 16.8 ± 14.7%.

With “25470-DC: siNA duplex: sense B AAAGuAGAAAAAAAAAuuA TTB (SEQ ID NO: 123), antisense UAAuuuuuuuuucuAcuuuUU (SEQ ID NO: 124) (sense AAAGUAGAAAAAAAAAUUATT; antisense UAAUUUUUUUUUCUACUUUUU; sense: sugars from the 5' end d4 f1 d11 f2 d3, [invAb] at 5' end, 3' end, backbone not given here; antisense: sugars from the 5' end r3 f11 m1 f4 m2, backbone not given here)”, the “% KD TSLP” value in the data set with TSLP mRNA is given as 28 ± 22.6%. Further, in the data set with mTSLP mRNA, the “% KD mTSLP NIH3T3” value is on record as 19.3 ± 10.3%.
